Key:
[1] = target: T1, Leukotriene C4 synthase (Cavia porcellus, UniProt A6XA80); format: tissue-based, Lung;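 also: enzyme inhibition assay of leukotriene C4 synthase, using LTA4 as the substrate; in other assays of this panel Not Active means under 50% inhibition at 10 µM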
T1 sequence (A6XA80 whole entry): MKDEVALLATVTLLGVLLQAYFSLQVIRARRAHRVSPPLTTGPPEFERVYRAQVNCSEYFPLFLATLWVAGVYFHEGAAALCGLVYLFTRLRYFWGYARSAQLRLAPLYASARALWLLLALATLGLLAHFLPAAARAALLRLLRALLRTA

[2] = DRUGMATRIX: Glutamate, AMPA radioligand binding (ligand: [3H] AMPA); format: cell membranes, Rattus norvegicus, Wistar, Cerebral cortex, Membrane; conditions: Not Active = under 50% inhibition at 10 µM
[3] = target: T2, Calcitonin receptor (Homo sapiens, UniProt P30988); format: cell membranes, Membrane; conditions: t47d; also: in other assays of this panel Not Active means under 50% inhibition at 10 µM
T2 sequence (P30988 whole entry): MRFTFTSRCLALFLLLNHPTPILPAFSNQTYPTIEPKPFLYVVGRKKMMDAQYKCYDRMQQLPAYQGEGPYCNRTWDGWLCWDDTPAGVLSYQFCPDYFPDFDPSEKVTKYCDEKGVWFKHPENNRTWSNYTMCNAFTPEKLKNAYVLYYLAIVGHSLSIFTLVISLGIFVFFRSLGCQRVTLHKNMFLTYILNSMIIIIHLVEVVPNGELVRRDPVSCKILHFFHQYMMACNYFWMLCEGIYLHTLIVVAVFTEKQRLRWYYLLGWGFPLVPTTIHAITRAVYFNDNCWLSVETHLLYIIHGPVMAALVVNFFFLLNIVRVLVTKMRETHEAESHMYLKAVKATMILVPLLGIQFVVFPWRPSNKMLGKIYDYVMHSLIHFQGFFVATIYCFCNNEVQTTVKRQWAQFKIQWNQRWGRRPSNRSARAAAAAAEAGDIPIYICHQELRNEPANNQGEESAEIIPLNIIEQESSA

[4] = target: T3, Receptor-type tyrosine-protein phosphatase C (Homo sapiens, UniProt P08575); design: species or system Escherichia coli;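 also: inhibition of CD45 enzyme activity measured using DiFMUP as substrate; in other assays of this panel Not Active means under 50% inhibition at 10 µM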
T3 sequence (P08575 whole entry): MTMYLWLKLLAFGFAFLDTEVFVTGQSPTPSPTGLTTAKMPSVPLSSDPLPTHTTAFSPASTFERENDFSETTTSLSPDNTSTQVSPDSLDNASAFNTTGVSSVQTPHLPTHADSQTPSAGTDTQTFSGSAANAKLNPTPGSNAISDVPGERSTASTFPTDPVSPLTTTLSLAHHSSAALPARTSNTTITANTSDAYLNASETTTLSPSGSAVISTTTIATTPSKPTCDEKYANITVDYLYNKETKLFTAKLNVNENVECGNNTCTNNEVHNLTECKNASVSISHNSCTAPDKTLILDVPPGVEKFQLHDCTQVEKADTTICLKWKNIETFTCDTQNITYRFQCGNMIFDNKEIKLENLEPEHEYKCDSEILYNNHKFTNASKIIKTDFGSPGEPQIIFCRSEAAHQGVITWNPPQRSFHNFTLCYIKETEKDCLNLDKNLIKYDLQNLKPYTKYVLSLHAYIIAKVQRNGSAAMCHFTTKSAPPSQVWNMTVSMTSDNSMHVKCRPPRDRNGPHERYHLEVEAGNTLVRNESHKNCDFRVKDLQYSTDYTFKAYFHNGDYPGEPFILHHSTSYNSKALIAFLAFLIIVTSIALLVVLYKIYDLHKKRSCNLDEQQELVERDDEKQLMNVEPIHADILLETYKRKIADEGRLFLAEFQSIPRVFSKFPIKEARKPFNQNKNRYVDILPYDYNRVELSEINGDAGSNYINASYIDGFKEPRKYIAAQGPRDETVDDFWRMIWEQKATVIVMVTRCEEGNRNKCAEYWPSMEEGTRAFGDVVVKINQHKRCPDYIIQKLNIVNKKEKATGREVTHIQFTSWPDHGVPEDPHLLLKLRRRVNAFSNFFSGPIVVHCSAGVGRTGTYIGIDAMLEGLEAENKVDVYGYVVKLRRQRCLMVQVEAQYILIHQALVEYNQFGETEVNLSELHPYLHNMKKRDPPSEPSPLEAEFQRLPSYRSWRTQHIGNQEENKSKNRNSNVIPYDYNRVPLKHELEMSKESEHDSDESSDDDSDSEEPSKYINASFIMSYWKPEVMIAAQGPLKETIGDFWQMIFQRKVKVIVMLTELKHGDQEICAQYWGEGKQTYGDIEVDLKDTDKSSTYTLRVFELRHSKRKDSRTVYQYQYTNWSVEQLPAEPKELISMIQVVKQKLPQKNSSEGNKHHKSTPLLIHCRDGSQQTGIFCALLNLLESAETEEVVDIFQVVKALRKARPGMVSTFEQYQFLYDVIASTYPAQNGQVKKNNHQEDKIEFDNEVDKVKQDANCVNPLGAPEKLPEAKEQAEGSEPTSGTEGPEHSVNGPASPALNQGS

[5] = DRUGMATRIX: Phorbol Ester radioligand binding (ligand: [3H] PDBu); format: cell membranes, Mus musculus, ICR, Brain, Membrane; conditions: Not Active = under 50% inhibition at 10 µM
[6] = target: Substance-P receptor (Homo sapiens, UniProt P25103); format: cell membranes, CHO, Membrane; conditions: cho; also: in other assays of this panel Not Active means under 50% inhibition at 10 µM
Chain of Substance-P receptor (P25103 whole entry): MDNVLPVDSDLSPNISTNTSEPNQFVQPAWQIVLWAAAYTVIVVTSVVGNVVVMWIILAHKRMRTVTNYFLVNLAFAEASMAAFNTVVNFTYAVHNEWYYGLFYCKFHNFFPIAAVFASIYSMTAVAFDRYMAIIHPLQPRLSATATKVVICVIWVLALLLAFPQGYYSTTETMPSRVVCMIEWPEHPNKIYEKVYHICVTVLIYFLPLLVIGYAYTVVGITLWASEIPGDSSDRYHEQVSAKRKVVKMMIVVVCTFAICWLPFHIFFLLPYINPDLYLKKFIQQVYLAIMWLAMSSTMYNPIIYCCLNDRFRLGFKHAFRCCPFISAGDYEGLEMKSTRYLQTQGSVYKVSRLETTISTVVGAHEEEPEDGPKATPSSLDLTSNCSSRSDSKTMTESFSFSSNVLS

[7] = DRUGMATRIX: Sodium/nucleoside co-transporter radioligand binding (ligand: nitrobenzylthioinosine); format: cell membranes, Cavia porcellus, Dunkin-Hartley, Cerebral cortex, Membrane; conditions: Not Active = under 50% inhibition at 10 µM
[8] = target: T4, Alpha-1D adrenergic receptor (Homo sapiens, UniProt P25100); format: cell membranes, HEK293, Membrane; conditions: hek293; also: in other assays of this panel Not Active means under 50% inhibition at 10 µM
T4 sequence (P25100 whole entry): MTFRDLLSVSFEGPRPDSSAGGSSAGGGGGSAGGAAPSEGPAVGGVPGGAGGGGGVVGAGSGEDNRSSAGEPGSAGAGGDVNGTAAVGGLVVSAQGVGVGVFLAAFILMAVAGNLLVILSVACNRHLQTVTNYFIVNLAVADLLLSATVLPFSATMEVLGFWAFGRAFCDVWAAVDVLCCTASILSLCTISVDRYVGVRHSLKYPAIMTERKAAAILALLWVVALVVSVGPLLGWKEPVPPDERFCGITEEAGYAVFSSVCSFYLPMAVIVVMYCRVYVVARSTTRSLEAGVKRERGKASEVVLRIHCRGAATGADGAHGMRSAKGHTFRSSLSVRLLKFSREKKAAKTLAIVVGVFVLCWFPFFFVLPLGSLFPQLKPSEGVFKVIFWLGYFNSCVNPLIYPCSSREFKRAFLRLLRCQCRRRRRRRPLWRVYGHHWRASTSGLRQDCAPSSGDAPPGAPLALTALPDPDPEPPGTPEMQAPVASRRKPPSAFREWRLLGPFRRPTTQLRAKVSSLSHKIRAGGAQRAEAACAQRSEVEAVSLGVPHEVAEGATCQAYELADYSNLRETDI

C[C@@H]1CC[C@@]2(OC1)O[C@H]1[C@@H](O)[C@H]3[C@@H]4CC[C@H]5C[C@@H](O[C@@H]6O[C@H](CO)[C@H](O[C@@H]7O[C@H](CO)C(O)[C@H](O[C@@H]8OC[C@@H](O)[C@H](O)[C@H]8O)[C@H]7O[C@@H]7O[C@H](CO)[C@H](O)[C@H](O[C@@H]8O[C@H](CO)[C@@H](O)[C@H](O)[C@H]8O)[C@H]7O)[C@H](O)[C@H]6O)[C@H](O)C[C@]5(C)[C@H]4CC[C@]3(C)[C@H]1[C@@H]2C (some centres undefined) [DIGITONIN]
Not Active: IC50 [1] | IC50 [2] | Ki [2] | IC50 [3] | IC50 [4] | IC50 [5] | Ki [5] | IC50 [6] | IC50 [7] | Ki [7] | IC50 [8]

OC(CCCN1CCCCC1)(c1ccccc1)c1ccccc1 [DIPHENIDOL]
Not Active: IC50 [1] | IC50 [2] | Ki [2] | IC50 [3] | IC50 [4] | IC50 [5] | Ki [5] | IC50 [6] | IC50 [7] | Ki [7] | IC50 [8]

C[C@H]1O[C@@H](n2cc(F)c(=O)[nH]c2=O)[C@H](O)[C@@H]1O [DOXIFLURIDINE]
Not Active: IC50 [1] | IC50 [2] | Ki [2] | IC50 [3] | IC50 [4] | IC50 [5] | Ki [5] | IC50 [6] | IC50 [7] | Ki [7] | IC50 [8]

Cn1c(=O)c2c(ncn2CC(O)CO)n(C)c1=O (centres undefined) [DYPHYLLINE]
Not Active: IC50 [1] | IC50 [2] | Ki [2] | IC50 [3] | IC50 [4] | IC50 [5] | Ki [5] | IC50 [6] | IC50 [7] | Ki [7] | IC50 [8]

CC[C@H]1CN2CCc3cc(OC)c(OC)cc3[C@@H]2C[C@@H]1C[C@H]1NCCc2cc(OC)c(OC)cc21 [EMETINE]
Not Active: IC50 [1] | IC50 [2] | Ki [2] | IC50 [3] | IC50 [4] | IC50 [5] | Ki [5] | IC50 [6] | IC50 [7] | Ki [7] | IC50 [8]

C[C@@H](CO)NC(=O)[C@@H]1C=C2c3cccc4[nH]cc(c34)C[C@H]2N(C)C1 [ERGONOVINE]
Not Active: IC50 [1] | IC50 [2] | Ki [2] | IC50 [3] | IC50 [4] | IC50 [5] | Ki [5] | IC50 [6] | IC50 [7] | Ki [7] | IC50 [8]

COC(=O)CCc1ccc(OCC(O)CNC(C)C)cc1 (centres undefined) [ESMOLOL]
Not Active: IC50 [1] | IC50 [2] | Ki [2] | IC50 [3] | IC50 [4] | IC50 [5] | Ki [5] | IC50 [6] | IC50 [7] | Ki [7] | IC50 [8]

CCC1(C)CC(=O)NC1=O (centres undefined) [ETHOSUXIMIDE]
Not Active: IC50 [1] | IC50 [2] | Ki [2] | IC50 [3] | IC50 [4] | IC50 [5] | Ki [5] | IC50 [6] | IC50 [7] | Ki [7] | IC50 [8]

C#C[C@]1(OC(C)=O)CC[C@H]2[C@@H]3CCC4=C[C@@H](OC(C)=O)CC[C@@H]4[C@H]3CC[C@@]21C [ETHYNODIOL DIACETATE]
Not Active: IC50 [1] | IC50 [2] | Ki [2] | IC50 [3] | IC50 [4] | IC50 [5] | Ki [5] | IC50 [6] | IC50 [7] | Ki [7] | IC50 [8]

COc1cc([C@@H]2c3cc4c(cc3[C@@H](O[C@@H]3O[C@@H]5CO[C@@H](C)O[C@H]5[C@H](O)[C@H]3O)[C@H]3COC(=O)[C@H]23)OCO4)cc(OC)c1O [ETOPOSIDE]
Not Active: IC50 [1] | IC50 [2] | Ki [2] | IC50 [3] | IC50 [4] | IC50 [5] | Ki [5] | IC50 [6] | IC50 [7] | Ki [7] | IC50 [8]

C=CCc1ccc(O)c(OC)c1 [EUGENOL]
Not Active: IC50 [1] | IC50 [2] | Ki [2] | IC50 [3] | IC50 [4] | IC50 [5] | Ki [5] | IC50 [6] | IC50 [7] | Ki [7] | IC50 [8]

CC(C(=O)O)c1cccc(Oc2ccccc2)c1 (centres undefined) [FENOPROFEN]
Not Active: IC50 [1] | IC50 [2] | Ki [2] | IC50 [3] | IC50 [4] | IC50 [5] | Ki [5] | IC50 [6] | IC50 [7] | Ki [7] | IC50 [8]

CC(C)(C)NC(=O)[C@H]1CC[C@H]2[C@@H]3CC[C@H]4NC(=O)C=C[C@]4(C)[C@H]3CC[C@]12C [FINASTERIDE]
Not Active: IC50 [1] | IC50 [2] | Ki [2] | IC50 [3] | IC50 [4] | IC50 [5] | Ki [5] | IC50 [6] | IC50 [7] | Ki [7] | IC50 [8]

COc1ccc2c3c1O[C@H]1C[C@@H](O)C=C[C@@]31CCN(C)C2 [GALANTAMINE]
Not Active: IC50 [1] | IC50 [2] | Ki [2] | IC50 [3] | IC50 [4] | IC50 [5] | Ki [5] | IC50 [6] | IC50 [7] | Ki [7] | IC50 [8]

Source: ChEMBL document CHEMBL1909046, “DrugMatrix in vitro pharmacology data”
